Measurements as given in PubChem BioAssay (NCI).
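Following 48 hours of exposure in 96-well plates, responses at five concentrations were used to interpolate endpoints linearly. At the TGI there is no net growth.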

Experiments:
Experiment in all cases: NCI tumour cell line growth inhibition, 48 h
HOP-62 NSCLC = system: HOP-62 NSCLC
P388 leukemia = system: P388 leukemia
P388/ADR leukemia = system: P388/ADR leukemia
SNB-75 CNS = system: SNB-75 CNS
SF-295 CNS = system: SF-295 CNS
MALME-3M melanoma = system: MALME-3M melanoma
DMS 273 small cell lung = system: DMS 273 small cell lung
SK-MEL-28 melanoma = system: SK-MEL-28 melanoma
RXF 393 renal = system: RXF 393 renal
SN12K1 renal = system: SN12K1 renal
HCT-116 colon = system: HCT-116 colon
A498 renal = system: A498 renal
COLO 205 colon = system: COLO 205 colon
HL-60(TB) leukemia = system: HL-60(TB) leukemia
IGROV1 ovarian = system: IGROV1 ovarian
XF 498 CNS = system: XF 498 CNS
SNB-78 CNS = system: SNB-78 CNS
KM12 colon = system: KM12 colon
MCF7 breast = system: MCF7 breast
UACC-62 melanoma = system: UACC-62 melanoma
HOP-18 NSCLC = system: HOP-18 NSCLC
SK-MEL-5 melanoma = system: SK-MEL-5 melanoma
UO-31 renal = system: UO-31 renal
SW-620 colon = system: SW-620 colon
EKVX NSCLC = system: EKVX NSCLC
SF-539 CNS = system: SF-539 CNS
U251 CNS = system: U251 CNS
DLD-1 colon = system: DLD-1 colon
M19-MEL melanoma = system: M19-MEL melanoma
SK-MEL-2 melanoma = system: SK-MEL-2 melanoma
OVCAR-3 ovarian = system: OVCAR-3 ovarian
OVCAR-8 ovarian = system: OVCAR-8 ovarian
HT29 colon = system: HT29 colon
OVCAR-5 ovarian = system: OVCAR-5 ovarian
HCT-15 colon = system: HCT-15 colon
SNB-19 CNS = system: SNB-19 CNS
K-562 leukemia = system: K-562 leukemia
KM20L2 colon = system: KM20L2 colon
UACC-257 melanoma = system: UACC-257 melanoma
NCI-H23 lung = system: NCI-H23 lung
SK-OV-3 ovarian = system: SK-OV-3 ovarian
SN12C renal = system: SN12C renal
NCI/ADR-RES ovarian = system: NCI/ADR-RES ovarian
SF-268 CNS = system: SF-268 CNS
CCRF-CEM leukemia = system: CCRF-CEM leukemia
OVCAR-4 ovarian = system: OVCAR-4 ovarian
DMS 114 small cell lung = system: DMS 114 small cell lung
NCI-H226 lung = system: NCI-H226 lung
MOLT-4 leukemia = system: MOLT-4 leukemia
LOX IMVI melanoma = system: LOX IMVI melanoma
HCC-2998 colon = system: HCC-2998 colon
RPMI-8226 leukemia = system: RPMI-8226 leukemia
NCI-H460 lung = system: NCI-H460 lung
NCI-H522 lung = system: NCI-H522 lung
A549 NSCLC = system: A549 NSCLC
HOP-92 NSCLC = system: HOP-92 NSCLC
TK-10 renal = system: TK-10 renal
LXFL 529 NSCLC = system: LXFL 529 NSCLC
786-0 renal = system: 786-0 renal
RXF-631 renal = system: RXF-631 renal
M14 melanoma = system: M14 melanoma
CAKI-1 renal = system: CAKI-1 renal
ACHN renal = system: ACHN renal
SR leukemia = system: SR leukemia

Measured: TGI

COC(=O)C(C/C=C(\C)c1ccc(Cl)cc1)C(C)=O (stereo not given)
> 92.5 µM: M19-MEL melanoma
> 61.7 µM: SN12K1 renal
> 90.6 µM: A549 NSCLC
> 77.1 µM: HT29 colon
38.3 µM: HL-60(TB) leukemia
46 µM: P388 leukemia
64.2 µM: HOP-92 NSCLC
> 90.3 µM: OVCAR-5 ovarian
> 69 µM: RPMI-8226 leukemia
92.3 µM: NCI-H522 lung
> 71.3 µM: UACC-257 melanoma
> 76.5 µM: P388/ADR leukemia
> 72 µM: DMS 273 small cell lung
41.2 µM: MOLT-4 leukemia
> 91 µM: NCI-H226 lung
> 73.8 µM: DMS 114 small cell lung
28.1 µM: LOX IMVI melanoma
> 94.6 µM: SNB-75 CNS
> 86.6 µM: U251 CNS
32.9 µM: SK-MEL-2 melanoma
51.7 µM: SK-MEL-5 melanoma
63.1 µM: NCI/ADR-RES ovarian
> 95.9 µM: RXF 393 renal
85.4 µM: UO-31 renal
not listed: TK-10 renal | LXFL 529 NSCLC | 786-0 renal | RXF-631 renal | M14 melanoma | CAKI-1 renal | ACHN renal | SR leukemia
> 100 µM: all other assays above

c1ccc2c(c1)N=C(c1cccc3ccccc13)CC(c1ccc3c(c1)OCO3)S2 (stereo not given)
not listed: P388 leukemia | P388/ADR leukemia | SK-MEL-28 melanoma | SN12K1 renal | MCF7 breast | HCT-15 colon | NCI/ADR-RES ovarian | DMS 114 small cell lung | RPMI-8226 leukemia | HOP-92 NSCLC
> 100 µM: all other assays above
